Source: patent US10052320B2, “Substituted quinoxalines as FGFR kinase inhibitors” (ASTEX THERAPEUTICS LIMITED, priority 2011, dated 2018)
Like-named read-outs stand apart in the source and are kept apart here.

Key:
FGFR1 (h) = FGFR1 (h) (Homo sapiens, UniProt P11362); assay: FGFR1 (enzymatic assay), TR-FRET; type: biochemical; settings: read-out: FGFR 1 pIC50 (converted)
Procedure: (§1) In a final reaction volume of 30 μL, FGFR1 (h) (25 ng/ml) was incubated with 50 mM HEPES pH 7.5, 6 mM MnCl2, 1 mM DTT, 0.1 mM Na3VO4, 0.01% Triton-X-100, 500 nM Btn-Flt3 and 5 μM ATP in the presence of compound (1% DMSO final). […] Time-Resolved Fluorescence Resonance Energy Transfer (TR-FRET) signal (ex340 nm. Em 620 nm, em 655 nm) was measured afterwards and results are expressed in RFU (Relative Fluorescence Units).

[1] = tested on: Ba/F3-FGFR3-transfected cells in the presence of 10 ng/ml murine IL3; assay: Ba/F3-FGFR3 (plus IL3) cellular proliferation counterscreen, Alamar Blue; type: cell-based; settings: for IC50: Mus musculus
Procedure: Ba/F3-FGFR3 (Minus IL3 or Plus IL3) (Cellular Proliferation Assay)
(§2) In a 384 well plate, 100 nl of compound dilution in DMSO was sprayed before adding 50 μl cell culture medium (phenol red free RPMI-1640, 10% FBS, 2 mM L-Glutamine and 50 μg/ml Gentamycin) containing 20000 cells per well of Ba/F3-FGFR3-transfected cells. Cells were put in an incubator at 37° C. and 5% CO2. After 24 hours, 10 μl of Alamar Blue solution (0.5 mM K3Fe(CN)6, 0.5 mM KaFe(CN)6, 0.15 mM Resazurin and 100 mM Phosphate Buffer) was added to the wells, incubated for 4 hours at 37° C. and 5% CO2 before RFU's (Relative Fluorescence Units) (ex. 540 nm., em. 590 nm.) were measured in a flurorescence plate reader.
(§3) As a counterscreen the same experiment was performed in the presence of 10 ng/ml murine IL3.
as §2, with “a 96” for “a 384”, “plate, 180” for “plate, 100 nl of compound dilution in DMSO was sprayed before adding 50”, “containing 10000” for “containing 20000”, “Ba/F3-FGFR3-transfected cells were pipette and 20 μl of compound dilution in DMSO was added.” for “Ba/F3-FGFR3-transfected cells.”, “hours, 40” for “hours, 10”

FGFR2 (h) = FGFR2 (h) (Homo sapiens, UniProt P21802); assay: FGFR2 (enzymatic assay), TR-FRET; type: biochemical; settings: read-out: FGFR 2 pIC50 (converted)
Procedure: as §1, with “μL, FGFR2” for “μL, FGFR1”, “(h) (150” for “(h) (25”, “and 0.4” for “and 5”, “in” for “in RFU”

FGFR3 (h) = FGFR3 (h) (Homo sapiens, UniProt P22607); assay: FGFR3 (enzymatic assay), TR-FRET; type: biochemical; settings: read-out: FGFR 3 pIC50 (converted)
Procedure: as §1, with “μL, FGFR3” for “μL, FGFR1”, “(h) (40” for “(h) (25”, “and 25” for “and 5”

[2] = tested on: Ba/F3-KDR-transfected cells in the presence of 10 ng/ml murine IL3; assay: Ba/F3-KDR (plus IL3) cellular proliferation counterscreen, Alamar Blue; type: cell-based; settings: for IC50: Mus musculus
Procedure: Ba/F3-KDR (Minus IL3 or Plus IL3) (Cellular Proliferation Assay)
[…] Cells were put in an incubator at 37° C. and 5% CO2. After 24 hours, 10 μl of Alamar Blue solution (0.5 mM K3Fe(CN)6, 0.5 mM KaFe(CN)6, 0.15 mM Resazurin and 100 mM Phosphate Buffer) was added to the wells, incubated for 4 hours at 37° C. and 5% CO2 before RFU's (Relative Fluorescence Units) (ex. 540 nm., em. 590 nm.) were measured in a flurorescence plate reader.
as §3
as §2, with “a 96” for “a 384”, “plate, 180” for “plate, 100 nl of compound dilution in DMSO was sprayed before adding 50”, “containing 10000” for “containing 20000”, “of Ba/F3-KDR-transfected cells were pipette and 20 μl of compound dilution in DMSO was added.” for “of Ba/F3-FGFR3-transfected cells.”, “hours, 40” for “hours, 10”, “CO2” for “CO2 before”

[3] = target: Ba/F3-FGFR4-transfected cells (Homo sapiens, UniProt P22455); assay: Ba/F3-FGFR4 cellular proliferation assay, Alamar Blue; type: cell-based
Procedure: Ba/F3-FGFR4 (Cellular Proliferation Assay)
as §2, with “Ba/F3-FGFR4-transfected” for “Ba/F3-FGFR3-transfected”

[4] = plus 10 ng/ml murine IL3, 384 well, read-out: BAF3-FGFR 3 (PLUS IL3) 384 well pIC50 (converted)
[5] = plus 10 ng/ml murine IL3, read-out: BAF3-KDR (PLUS IL3) 384 well pIC50 (converted)

FGFR3 (h), sequence (P22607 23-806): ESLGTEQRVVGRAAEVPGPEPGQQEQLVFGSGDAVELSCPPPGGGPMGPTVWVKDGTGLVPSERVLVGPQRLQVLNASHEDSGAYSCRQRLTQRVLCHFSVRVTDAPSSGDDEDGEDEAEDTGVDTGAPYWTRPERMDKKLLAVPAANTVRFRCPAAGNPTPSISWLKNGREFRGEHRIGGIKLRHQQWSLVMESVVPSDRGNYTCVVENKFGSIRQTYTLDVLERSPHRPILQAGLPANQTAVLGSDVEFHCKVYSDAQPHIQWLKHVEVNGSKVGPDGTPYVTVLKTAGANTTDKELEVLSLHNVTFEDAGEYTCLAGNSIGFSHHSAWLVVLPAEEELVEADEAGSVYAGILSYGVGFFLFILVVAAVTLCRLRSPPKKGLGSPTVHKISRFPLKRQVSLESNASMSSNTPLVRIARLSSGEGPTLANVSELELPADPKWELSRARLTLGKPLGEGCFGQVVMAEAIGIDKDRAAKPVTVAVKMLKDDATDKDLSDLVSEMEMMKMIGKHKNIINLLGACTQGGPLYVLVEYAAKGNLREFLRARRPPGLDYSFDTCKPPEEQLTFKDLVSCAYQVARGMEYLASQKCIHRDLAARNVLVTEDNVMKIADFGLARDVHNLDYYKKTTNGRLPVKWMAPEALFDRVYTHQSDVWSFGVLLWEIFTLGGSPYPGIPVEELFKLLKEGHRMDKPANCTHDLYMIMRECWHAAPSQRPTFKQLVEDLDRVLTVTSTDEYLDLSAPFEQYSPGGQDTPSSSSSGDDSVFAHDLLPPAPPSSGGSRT
FGFR2 (h), sequence (P21802 22-821): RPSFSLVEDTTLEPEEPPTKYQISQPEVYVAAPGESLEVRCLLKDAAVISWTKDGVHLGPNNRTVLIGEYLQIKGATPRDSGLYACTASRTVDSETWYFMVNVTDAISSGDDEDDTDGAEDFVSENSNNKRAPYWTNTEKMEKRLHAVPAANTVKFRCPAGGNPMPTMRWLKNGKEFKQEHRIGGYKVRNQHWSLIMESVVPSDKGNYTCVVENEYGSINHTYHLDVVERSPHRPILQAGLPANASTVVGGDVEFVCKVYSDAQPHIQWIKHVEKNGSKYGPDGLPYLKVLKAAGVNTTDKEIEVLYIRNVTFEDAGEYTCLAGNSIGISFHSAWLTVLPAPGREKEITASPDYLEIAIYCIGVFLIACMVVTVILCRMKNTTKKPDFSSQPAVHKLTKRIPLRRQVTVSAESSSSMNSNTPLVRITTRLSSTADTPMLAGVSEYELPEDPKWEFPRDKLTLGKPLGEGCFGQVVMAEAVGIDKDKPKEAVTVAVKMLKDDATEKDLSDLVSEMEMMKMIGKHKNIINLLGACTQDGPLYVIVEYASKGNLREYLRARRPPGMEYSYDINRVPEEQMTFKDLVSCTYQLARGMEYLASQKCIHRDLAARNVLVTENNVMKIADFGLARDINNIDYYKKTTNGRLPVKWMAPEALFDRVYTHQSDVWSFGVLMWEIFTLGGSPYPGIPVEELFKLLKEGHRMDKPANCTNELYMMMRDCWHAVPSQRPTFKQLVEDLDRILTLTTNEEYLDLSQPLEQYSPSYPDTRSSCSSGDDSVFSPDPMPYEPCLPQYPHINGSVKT
Ba/F3-FGFR4-transfected cells, sequence (P22455 whole entry, change not shown): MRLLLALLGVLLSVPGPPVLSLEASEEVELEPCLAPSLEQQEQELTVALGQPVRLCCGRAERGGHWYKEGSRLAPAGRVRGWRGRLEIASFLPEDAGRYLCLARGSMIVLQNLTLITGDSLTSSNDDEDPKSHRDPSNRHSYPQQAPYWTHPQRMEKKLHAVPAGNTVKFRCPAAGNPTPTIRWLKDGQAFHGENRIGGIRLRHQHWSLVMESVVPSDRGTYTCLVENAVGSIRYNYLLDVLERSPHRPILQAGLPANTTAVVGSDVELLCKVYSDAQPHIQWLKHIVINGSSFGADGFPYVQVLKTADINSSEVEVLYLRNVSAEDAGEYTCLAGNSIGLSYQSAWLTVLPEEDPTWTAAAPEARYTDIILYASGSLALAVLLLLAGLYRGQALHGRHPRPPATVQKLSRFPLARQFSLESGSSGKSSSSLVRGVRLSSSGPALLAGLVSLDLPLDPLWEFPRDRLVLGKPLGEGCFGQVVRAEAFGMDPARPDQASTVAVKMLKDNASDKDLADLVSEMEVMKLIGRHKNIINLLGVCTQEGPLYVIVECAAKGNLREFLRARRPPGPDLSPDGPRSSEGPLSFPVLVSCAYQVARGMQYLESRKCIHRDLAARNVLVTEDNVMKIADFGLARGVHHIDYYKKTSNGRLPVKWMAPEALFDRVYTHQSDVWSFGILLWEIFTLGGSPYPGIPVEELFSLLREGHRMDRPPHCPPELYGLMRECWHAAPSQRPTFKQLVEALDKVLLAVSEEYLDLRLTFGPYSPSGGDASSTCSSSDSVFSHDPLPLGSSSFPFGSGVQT
FGFR1 (h), sequence (P11362 22-822): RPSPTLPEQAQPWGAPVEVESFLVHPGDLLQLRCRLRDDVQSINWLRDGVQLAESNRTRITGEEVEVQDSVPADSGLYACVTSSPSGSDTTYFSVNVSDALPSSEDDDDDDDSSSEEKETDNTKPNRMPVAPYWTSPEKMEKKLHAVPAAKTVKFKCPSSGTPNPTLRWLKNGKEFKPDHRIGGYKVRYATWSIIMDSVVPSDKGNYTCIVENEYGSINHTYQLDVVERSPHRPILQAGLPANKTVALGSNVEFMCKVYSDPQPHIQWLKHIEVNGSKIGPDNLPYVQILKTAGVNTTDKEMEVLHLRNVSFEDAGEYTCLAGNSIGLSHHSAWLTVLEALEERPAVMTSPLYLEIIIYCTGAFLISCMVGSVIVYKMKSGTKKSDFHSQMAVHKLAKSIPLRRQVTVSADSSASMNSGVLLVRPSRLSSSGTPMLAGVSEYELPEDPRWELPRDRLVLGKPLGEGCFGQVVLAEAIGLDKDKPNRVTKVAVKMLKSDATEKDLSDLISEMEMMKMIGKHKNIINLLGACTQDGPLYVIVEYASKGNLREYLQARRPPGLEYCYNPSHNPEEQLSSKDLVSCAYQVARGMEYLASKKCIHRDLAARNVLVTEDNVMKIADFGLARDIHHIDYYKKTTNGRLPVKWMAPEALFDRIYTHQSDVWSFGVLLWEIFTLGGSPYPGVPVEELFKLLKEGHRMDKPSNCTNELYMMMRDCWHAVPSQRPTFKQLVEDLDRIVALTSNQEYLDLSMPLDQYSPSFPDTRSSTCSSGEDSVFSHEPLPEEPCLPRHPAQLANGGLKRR

SMILES | IC50 (FGFR1 (h)) [nM] | melting point [°C] | IC50 (FGFR2 (h)) [nM] | IC50 (FGFR3 (h)) [nM] | BAF3-FGFR4 pIC50 [3] | BAF3-FGFR4 pIC50 ([3]; 384 well) | IC50 [1, 4] [µM] | IC50 [2, 5] [µM] | BAF3-FGFR 3 (PLUS IL3) 384 well pIC50 ([1]; plus 10 ng/ml murine IL3, 384 well) | BAF3-KDR (PLUS IL3) 384 well pIC50 ([2]; plus 10 ng/ml murine IL3) | IC50 ([1]; plus IL3, 96 well, read-out: BAF3-FGFR 3 (PLUS IL3) 96 well pIC50 (converted)) [µM] | IC50 ([1]; plus IL3, 384 well, read-out: BAF3-FGFR 3 (PLUS IL3) 384 well pIC50 (converted)) [µM] | IC50 ([2]; read-out: BAF3-KDR (PLUS IL3) 384 well pIC50, plus IL3, 384 well, read-out: BAF3-KDR (PLUS IL3) 284 well pIC50 (converted)) [µM]
COc1cc(OC)cc(N(CCNC(C)C)c2ccc3ncc(C(=O)NCCCN4CCCCC4)nc3c2)c1 [Compound 182] | 19.5 | 121 | 26.3 | 126 | 5.7 | – | ~6.92 | > 10 | – | – | – | – | –
COc1cc(OC)cc(N(CCNC(C)C)c2ccc3ncc(-n4cnc(COC(C)=O)c4)nc3c2)c1 [Compound 167] | 1.66 | 56 | 7.76 | 11 | 6.4 | – | > 10 | > 10 | – | – | – | – | –
COc1cc(OC)cc(N(CCO)c2ccc3ncc(/C(C)=N/OC(C)(C)C)nc3c2)c1 [Compound 171] | 603 | 147 | 724 | 501 | <5 | – | > 10 | > 10 | – | – | – | – | –
COc1cc(OC)cc(N(CCCNCC(F)(F)F)c2ccc3ncc(-c4ccnc(C(=O)NCCCCCO)c4)nc3c2)c1 [Compound 150] | 91.2 | 95 | 70.8 | 49 | ~5.0 | – | > 10 | > 10 | – | – | – | – | –
COc1cc(OC)cc(N(CC2CC2)c2ccc3ncc(N4CCOCC4)nc3c2)c1 [Compound 63] | 537 | 114 | 741 | 138 | – | <5 | – | – | – | – | > 10 | > 10 | > 10
COc1cc(OC)cc(N(CCCNCC(F)(F)F)c2ccc3ncc(-c4cnc(OC)nc4)nc3c2)c1 [Compound 26] | 112 | 96 | 138 | 100 | ~5.1 | – | > 10 | > 10 | – | – | – | – | –
COc1cc(OC)cc(N(CCNC(C)C)c2ccc3ncc(-c4ccnn4C4CCCCO4)nc3c2)c1 (centres unmarked) [Compound 188] | 10 | 122 | 7.41 | 17.8 | 6.05 | – | > 10 | > 10 | – | – | – | – | –

Now from value to compound, other results behind:

IC50 (FGFR1 (h)) [nM] | melting point [°C] | IC50 (FGFR2 (h)) [nM] | IC50 (FGFR3 (h)) [nM] | BAF3-FGFR4 pIC50 [3] | BAF3-FGFR4 pIC50 ([3]; 384 well) | SMILES | IC50 [1, 4] [µM] | IC50 [2, 5] [µM] | BAF3-FGFR 3 (PLUS IL3) 384 well pIC50 ([1]; plus 10 ng/ml murine IL3, 384 well) | BAF3-KDR (PLUS IL3) 384 well pIC50 ([2]; plus 10 ng/ml murine IL3) | IC50 ([1]; plus IL3, 96 well, read-out: BAF3-FGFR 3 (PLUS IL3) 96 well pIC50 (converted)) [µM] | IC50 ([1]; plus IL3, 384 well, read-out: BAF3-FGFR 3 (PLUS IL3) 384 well pIC50 (converted)) [µM] | IC50 ([2]; read-out: BAF3-KDR (PLUS IL3) 384 well pIC50, plus IL3, 384 well, read-out: BAF3-KDR (PLUS IL3) 284 well pIC50 (converted)) [µM]
21.4 | 153 | 17.4 | 22.4 | 5.5 | – | COCC(O)CN(c1cc(OC)cc(OC)c1)c1ccc2ncc(-c3cccnc3)nc2c1 (single isomer, unassigned) [Compound 47] | – | – | <5 | <5 | – | – | –
45.7 | 80 | 95.5 | 24 | 5.4 | – | COc1cc(OC)cc(N(CCO)c2ccc3ncc(-c4ccc(N5CCN(C(=O)OC(C)(C)C)CC5)cc4)nc3c2)c1 [Compound 156] | > 10 | > 10 | – | – | – | – | –
5.13 | 150 | 12.3 | 2.88 | 5.9 | – | COc1cc(OC)cc(N(CCO)c2ccc3ncc(C4=CCN(C(=O)OC(C)(C)C)CC4)nc3c2)c1 [Compound 178] | > 10 | > 10 | – | – | – | – | –
29.5 | 142 | 32.4 | 10.2 | 5.6 | – | COc1cc(OC)cc(N(CCO)c2ccc3ncc(C4=CCN(C(=O)OC(C)(C)C)C4)nc3c2)c1 [Compound 173] | > 10 | > 10 | – | – | – | – | –
1.2 | 106 | 2.63 | 1.86 | 6.7 | – | COc1cc(OC)cc(N(CCN)c2ccc3ncc(-c4ccn(C)c4)nc3c2)c1 [Compound 79] | > 10 | > 10 | – | – | – | – | –
282 | 133 | 513 | 200 | <5 | – | COc1cc(OC)cc(N(CCO)c2ccc3ncc(-c4ccccc4CCO)nc3c2)c1 [Compound 151] | > 10 | > 10 | – | – | – | – | –
0.513 | 194 | 3.63 | 0.832 | 6.7 | – | COc1cc(OC)cc(N(CCO)c2ccc3ncc(-c4ccc(N5CCNCC5)cc4)nc3c2)c1 [Compound 166] | ~6.03 | 6.03 | – | – | – | – | –
115 | 130 | 166 | 97.7 | <5.35 | – | COc1cc(OC)cc(N(CCCNCC(F)(F)F)c2ccc3ncc(-c4ccnc(Cl)c4)nc3c2)c1 [Compound 145] | > 10 | > 10 | – | – | – | – | –
12.6 | 154 | 12 | 7.24 | 5.8 | – | COCC(O)CN(c1cc(OC)cc(OC)c1)c1ccc2ncc(-c3cccnc3)nc2c1 (single isomer, unassigned) [Compound 46] | > 10 | > 10 | – | – | – | – | –
